Measurements as given in patent US20220098203A1 (priority 2018, published 2022).

Each molecule was assayed against T1, MAT2A homodimer (Homo sapiens, UniProt P31153) (assay: MAT2A biochemical assay (liberated phosphate, PiColorLock Gold)). Details: Table 5a; MAT2A biochemical assay; read-out: Enzyme Inhibition.
T1 construct: inferred from the Ni sepharose purification and imidazole elution; made in house; host or cells: SF9 insect cells, recombinant baculovirus (Bac to Bac, pFASTBAC1)
Experimental: Mat2A protein was expressed by recombinant baculovirus in SF9 infected cells using the Bac to Bac system cloned into the pFASTBAC1 vector (Invitrogen, Carlsbad, Calif.). Recombinant MAT2A was isolated from the cell lysate of 150 g of infected cells using HP Ni sepharose column chromatography. Recombinant MAT2A homodimer was eluted with 250 and 500 mM imidazole, and fractions containing MAT2A were identified by sodium dodecyl sulfate polyacrylamide gel electrophoresis and pooled.
Test compound was prepared in 100% dimethyl sulfoxide (DMSO) at 50× the desired final concentration. A 1 μL volume of compound dilution was added to 40 μL of enzyme dilution and the mixture was allowed to equilibrate for 60 minutes at 25° C. The enzymatic assay was initiated by the addition of 10 μL of substrate mix (500 μM ATP, pH 7.0, 400 μM L-methionine in 1× assay buffer), and the mixture was incubated for a further 60 minutes at 25° C. The reaction was halted and the liberated phosphate released by the enzyme in stoichiometric amounts by the production of S-adenosyl methionine (SAM) was measured using the PiColorLock Gold kit (Innova Biosciences, UK). Absolute product amounts were determined by comparison to a standard curve of potassium phosphate buffer, pH 8.0.

T1 sequence (P31153 whole entry): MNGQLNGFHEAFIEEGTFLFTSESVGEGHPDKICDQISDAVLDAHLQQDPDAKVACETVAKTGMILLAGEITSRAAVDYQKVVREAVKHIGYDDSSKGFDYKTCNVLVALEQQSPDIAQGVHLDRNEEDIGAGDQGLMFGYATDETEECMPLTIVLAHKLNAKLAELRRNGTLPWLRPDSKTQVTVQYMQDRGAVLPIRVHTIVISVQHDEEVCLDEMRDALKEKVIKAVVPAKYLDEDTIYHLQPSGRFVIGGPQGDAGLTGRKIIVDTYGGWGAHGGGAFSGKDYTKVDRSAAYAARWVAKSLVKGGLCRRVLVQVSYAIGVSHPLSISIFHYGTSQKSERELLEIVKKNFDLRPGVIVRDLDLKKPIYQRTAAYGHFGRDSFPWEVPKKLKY

| SMILES | IC50 |
| --- | --- |
| COc1ccc(N2Cc3cnc(NCC(F)(F)F)nc3N(c3ccc4ncccc4c3)C2=O)cc1 [Example 240] | 100 to 1000 nM |
| Cn1cc2cc(N3Cc4cc(Cl)c(OCC(F)F)cc4N(c4ccc(OC(F)F)cc4)C3=O)ccc2n1 [Example 284, 6-chloro-7-(2,2-difluoroethoxy)-1-(4-(difluoromethoxy)phenyl)-3-(2-methyl-2H-indazol-5-yl)-3,4-dihydroquinazolin-2(1H)-one] | 100 to 1000 nM |
| COc1ccc(N2Cc3cnc(NCC(F)(F)F)nc3N(c3ccc(-c4cn[nH]c4)cc3)C2=O)cc1 [Example 211, 1-(4-(1H-pyrazol-4-yl)phenyl)-3-(4-methoxyphenyl)-7-((2,2,2-trifluoroethyl)amino)-3,4-dihydropyrimido[4,5-d]pyrimidin-2(1H)-one] | 100 to 1000 nM |
| COc1ccc(N2C(=O)N(c3ccc(OC)cn3)Cc3cnc(NCC(F)(F)F)nc32)cc1 [Example 238, 1-(4-methoxyphenyl)-3-(5-methoxypyridin-2-yl)-7-((2,2,2-trifluoroethyl)amino)-3,4-dihydropyrimido[4,5-d]pyrimidin-2(1H)-one] | 100 to 1000 nM |
| COc1ccc(N2Cc3cnc(NCC(F)(F)F)nc3N(c3ccc(-c4ccsn4)cc3)C2=O)cc1 [Example 207, 1-(4-(isothiazol-3-yl)phenyl)-3-(4-methoxyphenyl)-7-((2,2,2-trifluoroethyl)amino)-3,4-dihydropyrimido[4,5-d]pyrimidin-2(1H)-one] | 1000 to 10000 nM |
| COc1ccc(N2Cc3cnc(NCC4CC4)nc3N(c3ccc(O)cc3)C2=O)cc1 [Example 265] | 1000 to 10000 nM |
| COc1ccc(N2Cc3cnc(NCC(F)(F)F)nc3N(c3ccc(C4CC4O)cc3)C2=O)cc1 (stereo not drawn) [Example 281, 1-(4-(2-hydroxycyclopropyl)phenyl)-3-(4-methoxyphenyl)-7-((2,2,2-trifluoroethyl)amino)-3,4-dihydropyrimido[4,5-d]pyrimidin-2(1H)-one] | 100 to 1000 nM |
| COc1ccc(N2Cc3cnc(NCC(F)(F)F)nc3N(c3ccc4nccn4c3)C2=O)cc1 [Example 260] | 1000 to 10000 nM |
| COc1ccc(N2Cc3cnc(NCC(F)(F)F)nc3N(c3ccc(C)cc3)C2=O)cc1 [Example 243, 3-(4-methoxyphenyl)-1-(p-tolyl)-7-((2,2,2-trifluoroethyl)amino)-3,4-dihydropyrimido[4,5-d]pyrimidin-2(1H)-one] | 100 to 1000 nM |
| COc1ccc(N2C(=O)N(c3ccc(OC)nc3)Cc3cnc(NCC(F)(F)F)nc32)cc1 [Example 239, 1-(4-methoxyphenyl)-3-(6-methoxypyridin-3-yl)-7-((2,2,2-trifluoroethyl)amino)-3,4-dihydropyrimido[4,5-d]pyrimidin-2(1H)-one] | 100 to 1000 nM |
| COc1ccc(N2Cc3cnc(NCC(F)(F)F)nc3N(c3ccc4c(c3)CCO4)C2=O)cc1 [Example 253, 1-(2,3-dihydrobenzofuran-5-yl)-3-(4-methoxyphenyl)-7-((2,2,2-trifluoroethyl)amino)-3,4-dihydropyrimido[4,5-d]pyrimidin2(1H)-one] | 100 to 1000 nM |
| COc1ccc(-n2c(=O)c3cnc(NCC(F)(F)F)nc3n(-c3ccc(O)cc3)c2=O)cc1 [Example 262, 1-(4-hydroxyphenyl)-3-(4-methoxyphenyl)-7-((2,2,2-trifluoroethyl)amino)pyrimido[4,5-d]pyrimidine-2,4(1H,3H)-dione] | 100 to 1000 nM |
| COc1ccc(N2Cc3cnc(NCC(F)(F)F)nc3N(c3ccc(OC(F)(F)F)cc3)C2=O)cc1 [Example 256, 3-(4-methoxyphenyl)-7-((2,2,2-trifluoroethyl)amino)-1-(4-(trifluoromethoxy)phenyl)-3,4-dihydropyrimido[4,5-d]pyrimidin-2(1H)-one] | 100 to 1000 nM |
| COc1ccc(N2Cc3cnc(NCC(F)(F)F)nc3N(c3ccc(-c4cscn4)cc3)C2=O)cc1 [Example 210, 3-(4-methoxyphenyl)-1-(4-(thiazol-4-yl)phenyl)-7-((2,2,2-trifluoroethyl)amino)-3,4-dihydropyrimido[4,5-d]pyrimidin-2(1H)-one] | 100 to 1000 nM |
| O=C1N(c2ccc3nccn3c2)Cc2cnc(NCC(F)(F)F)nc2N1c1ccc(C2CC2)cc1 [Example 213, 1-(4-cyclopropylphenyl)-3-(imidazo[1,2-a]pyridin-6-yl)-7-((2,2,2-trifluoroethyl)amino)-3,4-dihydropyrimido[4,5-d]pyrimidin-2(1H)-one] | < 100 nM |
| COc1ccc(N2C(=O)N(c3ccncc3)Cc3cnc(NCC(F)(F)F)nc32)cc1 [Example 230, 1-(4-methoxyphenyl)-3-(pyridin-4-yl)-7-((2,2,2-trifluoroethyl)amino)-3,4-dihydropyrimido[4,5-d]pyrimidin-2(1H)-one] | < 100 nM |
| Cn1cc(N2Cc3cnc(NCC(F)(F)F)nc3N(c3ccc(-c4nc[nH]n4)cc3)C2=O)ccc1=O [Example 221, 1-(4-(1H-1,2,4-triazol-3-yl)phenyl)-3-(1-methyl-6-oxo-1dihydropyridin-3-yl)-7-((2,2,2-trifluoroethyl)amino)-3,4-dihydropyrimido[4,5-d]pyrimidin-2(1H)-one] | 100 to 1000 nM |
| CNC(=O)c1ccc(N2C(=O)N(c3ccc(OC)cc3)Cc3cnc(NCC(F)(F)F)nc32)cc1 [Example 277, 4-(3-(4-methoxyphenyl)-2-oxo-7-((2,2,2-trifluoroethyl)amino)-3,4-dihydropyrimido[4,5-d]pyrimidin-1(2H)-yl)-N-methylbenzamide] | 1000 to 10000 nM |
| CCOc1ccc2c(n1)N(c1ccc(OC)cc1)C(=O)N(c1ccc(NC)cc1)C2 [Example 121, 7-ethoxy-1-(4-methoxyphenyl)-3-(4-(methylamino)phenyl)-3,4-dihydropyrido[2,3-d]pyrimidin-2(1H)-one] | 1000 to 10000 nM |
| COc1ccc(N2Cc3cnc(NCC(F)(F)F)nc3N(c3ccc(O)nc3)C2=O)cc1 [Example 197, 1-(6-hydroxypyridin-3-yl)-3-(4-methoxyphenyl)-7-((2,2,2-trifluoroethyl)amino)-3,4-dihydropyrimido[4,5-d]pyrimidin-2(1H)-one] | 1000 to 10000 nM |
| COc1ccc(N2Cc3cnc(NCC(F)(F)F)nc3N(c3ccc(SC)cc3)C2=O)cc1 [Example 198, 3-(4-methoxyphenyl)-1-(4-(methylthio)phenyl)-7-((2,2,2-trifluoroethyl)amino)-3,4-dihydropyrimido[4,5-d]pyrimidin-2(1H)-one] | < 100 nM |
| COc1ccc(N2Cc3cnc(NCC(F)(F)F)nc3N(c3ccc(C4(O)CC4)cc3)C2=O)cc1 [Example 278, 1-(4-(1-hydroxycyclopropyl)phenyl)-3-(4-methoxyphenyl)-7-((2,2,2-trifluoroethyl)amino)-3,4-dihydropyrimido[4,5-d]pyrimidin-2(1H)-one] | 100 to 1000 nM |
| CCN(CC)c1ccc2c(n1)N(c1ccc(OC)cc1)C(=O)N(c1ccc3nn(C)cc3c1)C2 [Example 159, 7-(diethylamino)-1-(4-methoxyphenyl)-3-(2-methyl-2H-indazol-5-yl)-3,4-dihydropyrido[2,3-d]pyrimidin-2(1H)-one] | 1000 to 10000 nM |
| COc1ccc(N2C(=O)N(c3ccc4nncn4c3)Cc3cnc(NCC(F)(F)F)nc32)cc1 [Example 229, 3-([1,2,4]triazolo[4,3-a]pyridin-6-yl)-1-(4-methoxyphenyl)-7-((2,2,2-trifluoroethyl)amino)-3,4-dihydropyrimido[4,5-d]pyrimidin-2(1H)-one] | < 100 nM |
| COc1ccc(N2Cc3cnc(NCC(F)(F)F)nc3N(c3ccc(OC(F)F)nc3)C2=O)cc1 [Example 259] | 100 to 1000 nM |
| [2H]C([2H])([2H])Oc1ccc(N2C(=O)N(c3ccc4nn(C)cc4c3)Cc3ccc(OCCC(F)(F)F)nc32)cc1 [Example 166, 1-(4-methoxy-d3-phenyl)-3-(2-methyl-2H-indazol-5-yl)-7-(3,3,3-trifluoropropoxy)-3,4-dihydropyrido[2,3-d]pyrimidin-2(1H)-one] | 100 to 1000 nM |
| Cn1cc2cc(N3Cc4ccc(OCC(F)F)nc4N(c4ccc5nccn5c4)C3=O)ccc2n1 [Example 171, 7-(2,2-difluoroethoxy)-1-(imidazo[1,2-a]pyridin-6-yl)-3-(2-methyl-2H-indazol-5-yl)-3,4-dihydropyrido[2,3-d]pyrimidin-2(1H)-one] | < 100 nM |
| O=C1N(c2ccnnc2)Cc2cnc(NCC(F)(F)F)nc2N1c1ccc(OC(F)F)cc1 [Example 224, 1-(4-(difluoromethoxy)phenyl)-3-(pyridazin-4-yl)-7-((2,2,2-trifluoroethyl)amino)-3,4-dihydropyrimido[4,5-d]pyrimidin-2(1H)-one] | 1000 to 10000 nM |

Same assay, conditions: Table 5b; Additional Examples; read-out: Enzyme Inhibition

| SMILES | IC50 |
| --- | --- |
| COc1ccc(N2Cc3cnc(NCC(F)(F)F)nc3N(c3ccc(C(=O)O)cc3)C2=O)cc1 | > 10000 nM |
| COc1ccc(N2Cc3cnc(NCC(F)(F)F)nc3N(c3ccnnc3)C2=O)cc1 | > 10000 nM |
| COc1ccc(N2Cc3cnc(NCC(F)(F)F)nc3N(C3CCNC(=O)C3)C2=O)cc1 (stereo not drawn) | > 10000 nM |
| COc1ccc(N2Cc3cnc(SC)nc3N(c3cccc(Br)c3)C2=O)cc1 | > 10000 nM |
| COc1ccc(N2Cc3cnc(NCC(F)(F)F)nc3N(c3ccc(CC(C)O)cc3)C2=O)cc1 (stereo not drawn) | 100 to 1000 nM |
| COc1ccc(N2Cc3cnc(NCC(F)(F)F)nc3N(c3ccc(C(C)(C)CO)cc3)C2=O)cc1 | 100 to 1000 nM |
| COc1ccc(N2Cc3cnc(NCC(F)(F)F)nc3N(c3ncc(OC)cn3)C2=O)cc1 | > 10000 nM |
| COc1ccc(-n2c(=O)c3cnc(SC)nc3n(-c3ccc(OCc4ccccc4)cc3)c2=O)cc1 | > 10000 nM |
